“Also recorded” adds a separate entry of the source.
Assays:
C57/B16 mice = test: Mouse model of neointimal hyperplasia after mechanical endothelial damage; type: in vivo; settings: for effect on neointimal proliferation (in words) / neointimal proliferation, intimal thickness: 4 weeks after surgery; for neointimal proliferation, intimal thickness: in chow, surgery only 50±5%, no surgery 5±1%
Description: The key feature of atherosclerosis in humans is vascular smooth muscle cell (VSMC) migration from the arterial media to the intima, followed by proliferation within the intima. The animal model of atherosclerosis used in this experiment aimed to induce VSMC migration and neointimal proliferation by mechanical damage to the endothelium. A probe was introduced into the femoral artery of the mouse and was passed through the iliac artery to the bifurcation of the aorta. The probe was then withdrawn and the femoral artery ligated to prevent haemorrhage. Colateral circulation prevents any limb-associated ischaemia. Neointimal proliferation occurred in the iliac artery over the following 4 weeks.
Proliferation was enhanced by feeding the mouse cholesterol during this time (commencing one week before surgery). At four weeks, the mice were sacrificed and the iliac vessels on both sides are harvested (the non-operated vessel was used as a control). Neointimal proliferation is expressed as the ratio of the intimal area to the intimal plus media area.
Atherosclerosis was induced in the femoral artery of each mouse by mechanically removing the endothelium using a probe. The ability of isoflavone compounds to inhibit the atherosclerotic response was assessed by comparing treatment and placebo groups. C57/B16 mice (8-10 week old male) were anaesthetized, and the right femoral artery was de-endothilialized using a dissection microscope. These mice were also fed with a 2% cholesterol diet to enhance the progression of the disease. The mice were sacrificed at week 4. Their treated (right) and control (left) arteries were both collected and fixed in formalin for histopathological evaluation.
The mice were fed a diet of 2% cholesterol mixed with normal mouse chow for a week prior to surgery. The treatment groups were fed the chow with Cpd. 5 or Cpd. 12 or Cpds. 5+12. Mice were anaesthetised with Avertin, and angioplasty of the femoral artery was performed. After surgery, the mice were moved onto a warm mat in a quiet, darkened area and their recovery closely monitored. They were housed in sterile cages with sterile bedding to avoid infection. The mice continued a diet of cholesterol mixed with normal mouse chow for the next 4 weeks. The mice were euthanased at 4 weeks postsurgery. Their femoral arteries were collected for pathological examination. Sections were evaluated by image analysis to determine the area of the various sections of the arterial wall, and the numbers of cells in each area. The primary parameter being evaluated was the increase in the intimal area, expressed as the ratio of the area of the intima versus the area of the intima plus media. The interval sections (every 50 μm, or every ten sections) were mounted and stained with H & E. The cross-sectional areas of the endothelium, intima and media were evaluated, using image analysis.

p38 = test: MAP kinase activity in VSMC, immunoprecipitation analysis; type: cell-based; settings: human VSMC
Method: (§1) To further examine the signalling pathway mediating the effect of this phytoestrogen in VSMC, the effect of Cpd. 7 on mitogen-activated protein (MAP) kinases (Erk, JUNK, p38) was determined by immunoprecipitation analysis and on early growth response genes (Egr-1, Sp-1) by Western blotting. […] 7 in a dose-dependent manner, while JUNK and p38 activity were not affected by either PDGF BB or Cpd. 7, though the cells strongly expressed both proteins as well as Erk. Egr-1 or Sp-1 proteins were not altered by either PDGF-BB or Cpd. 7.

JUNK = test: as above; type: cell-based; settings: human VSMC
Method: as §1

Erk = test: PDGF BB-induced MAP kinase activation in VSMC, immunoprecipitation analysis; type: cell-based; settings: human VSMC
Method: as §1

Egr-1 = test: Early growth response gene protein in VSMC, Western blotting; type: cell-based; settings: human VSMC
Method: as §1

Sp-1 = test: as above; type: cell-based; settings: human VSMC
Method: as §1

E-selectin = test: Inhibition of E-selectin expression in activated HUVEC; type: cell-based, human; settings: pre-incubated 2 or 18 hours prior to TNF stimulation; Cpd. 8 especially at 10 μg/ml, Cpd. 12 especially at 1 and 10 μg/ml
Method: The ability of isoflavone compounds and derivatives to inhibit the expression of E-selectin was measured by the protocol set out in Litwin et al. (1997) and is incorporated herein by reference.
FIG. 18 provides comparative data on the ability of a number of isoflavone compounds to inhibit the expression of E-selectin conducted in accordance with the method of Litwin et al. The interaction of isoflavone metabolite Cpds. 8 and 12 on human umbilical vein endothelial cells, activated by […], was measured against the concentration of the compound. The cells were pre-incubated for either 2 or 18 hours prior to TNF stimulation. In comparison with a DMSO control, isoflavone Cpd. […] Isoflavone Cpd.

[1] = system: Human umbilical vein endothelial cells; test: Endothelial cell migration (wound) assay; type: cell-based; parameters: dose or concentration left out as unconfirmed; settings: after 30 hours
Method: Human umbilical vein endothelial cells between passage 1 and 3 were used. They were grown in gelatin coated flasks in medium 199 with Earle's Salts supplemented with 20% foetal calf serum, 25 mg/ml endothelial cell growth supplement and 25 mg/ml heparin.
5×10^5 cells per well in growth medium were plated onto fibronectin coated 6 well trays and grown to confluence. A wound was produced along the monolayer with the use of a cell scraper (Costar). The cells were then washed once and fresh medium with the test compounds was added. Defined points along the wound were marked using an ink condenser (Olympus microscopes) allowing the movement of cells to be visualized at constant points over the next 48 hours. Photographs were taken at relevant times and the degree of cell movement from the wound front assessed.

## O=C1c2ccc(O)cc2OCC1c1ccc(O)cc1 (stereo not shown) [Cpd. 5]
C57/B16 mice; 4 weeks
  reduction of neointimal area: approximately 50%
C57/B16 mice
  effect on neointimal proliferation (in words): significantly reduced
  neointimal proliferation, intimal thickness: 30±6%

## Oc1ccc(C2COc3cc(O)ccc3C2O)cc1 (stereo not shown) [Cpd. 7]
p38
  p38 activity: not affected
JUNK
  JUNK activity: not affected
Erk
  PDGF BB-induced Erk activation: significantly inhibited by Cpd. 7 in a dose-dependent manner
Egr-1
  Egr-1 protein: not altered
Sp-1
  Sp-1 protein: not altered

## Oc1ccc(C2COc3cc(O)ccc3C2O)cc1 (stereo not shown) [Cpd. 8]
E-selectin
  inhibition of E-selectin expression (in words): very good inhibition of E-selectin expression

## Oc1ccc(C2=Cc3ccc(O)cc3OC2)cc1 [Cpd. 12]
C57/B16 mice
  effect on neointimal proliferation (in words): no detectable effect; also recorded: no appreciable effect on neointimal proliferation
  neointimal proliferation, intimal thickness: 50±29%
[1]
  endothelial cell migration towards the wound: markedly inhibited endothelial cell migration
E-selectin
  inhibition of E-selectin expression (in words): excellent inhibition of E-selectin expression

Reference: US20050119301A1, “Treatment of restenosis” (priority 2001, published 2005)
